Results as given in patent US11549134B2, “Modified amadoriase and method for producing the same, agent for improving surfactant resistance of amadoriase and composition for measuring HbA1c using the same” (Kikkoman Corporation, priority 2013, dated 2023).

What was measured:
PnFX = assay: Surfactant resistance of PnFX during addition of each stabilizer; assay type: biochemical, Phaeosphaeria nodorum; details: Stabilizer 20 mM; 300 mM HEPES (pH 7.0); 0.04% CTAC
Procedure: The same stabilizers as those described above were used as stabilizers; 300 mM HEPES (pH 7.0) was used as a buffering agent to prevent a change in pH when the stabilizers was each added; PnFX purified as described above was used as a sample; the final concentration of CTAC was set at 0.04%; and the surfactant resistance of PnFX was evaluated as described above.

CFP-T7 [1] = assay: Surfactant resistance of amadoriase during addition of each stabilizer (CFP-T7); assay type: biochemical, genus Coniochaeta; details: 500 mM HEPES (pH 7.0), 0.01% CTAC
Procedure: In the above surfactant resistance measuring method, various stabilizers are added and the residual activity of an amadoriase is measured in order to evaluate the effect of the stabilizers. […] The concentration sufficient to provide a buffer capacity to a solution refers to the concentration at which pH is maintained within a predetermined range (for example pH5 to 10, pH6 to 8) without having pH change due to other reagents added to the solution. A concentration insufficient to provide a buffer capacity to a solution refers to the concentration at which pH changes by addition of other reagents to the solution and pH falls outside a particular range. These concentrations vary depending upon the type and amount of other reagents to be added to a solution; however, a person skilled in the art can appropriately determine the concentration by conventional methods. Other conditions and procedure can be the same as in the above surfactant resistance measuring method.
It was studied whether or not the addition of any of various stabilizers enhanced the surfactant resistance of an amadoriase. Phosphoric acid, a tricarboxylic acid (e.g., citric acid), a dicarboxylic acid (e.g., malic acid, maleic acid, citraconic acid, malonic acid, glutaric acid, or tartaric acid), a monpcarboxylic acid (e.g., acetic acid), MES, MOPS, MOPSO, or ammonium sulfate was used as a stabilizer. As a Comparative Example, CHES was used. To prevent change in pH when adding the stabilizer, 500 mM HEPES (pH 7.0) was used as a buffer solution; CFP-T7 purified as described above was used as a sample; the final concentration of CTAC was set at 0.01%; and any of the stabilizers was further added to evaluate the surfactant resistance of CFP-T7 according to the measurement method for surfactant resistance in Example 1. Using a 500 mM HEPES (pH 7.0) buffering agent and CFP-D2 purified as described above as a sample, any of the stabilizers was further added, and the surfactant resistance of CFP-D2 was evaluated according to the measurement method for surfactant resistance in Example 1 although under more harsh surfactant treatment conditions in which the final concentration of CTAC was set at 0.08% and the treatment temperature at 37° C.

CFP-T7 [2] = assay: Surfactant resistance of amadoriase in presence of buffering agents; assay type: biochemical, genus Coniochaeta; details: for CFP-T7 Residual Activity (%): 0.01% CTAC, purified CFP-T7; for amadoriase stabilizing effect of the buffer (in words): CFP-T7 in the presence of surfactant
Procedure: In the above surfactant resistance measuring method, the residual activity of an amadoriase is measured by using various buffers in place of a 30 mM MES/21 mM Tris buffer solution. In this manner, the contribution of the buffer to the amadoriase residual activity can be evaluated. For example, in place of the 30 mM MES/21 mM Tris buffer solution (pH 6.5), e.g., a phosphate buffer solution (pH 7.0), a citrate buffer solution (pH 6.0), a HEPES buffer solution (pH 7.0) or an ACES buffer solution (pH 7.0) can be used. Other conditions and procedure can be the same as in the above surfactant resistance measuring method.
It was studied whether the surfactant resistance of an amadoriase is enhanced or not when a buffering agent other than a 30 mM MES/21 mM Tris buffering agent (pH 6.5) was used. Using CFP-T7 purified as described above as a sample, the final concentration of CTAC was set at 0.01% to evaluate the surfactant resistance of CFP-T7 according to the measurement method for surfactant resistance in Example 1 in the presence of any of various buffering agents, specifically a phosphate buffering agent containing phosphoric acid and potassium phosphate (pH 7.0), a citrate buffering agent containing citric acid and sodium citrate (pH 6.0), an MES buffering agent containing MES and it sodium salt (pH 7.0), an HEPES buffering agent containing HEPES and its sodium salt (pH 7.0), and an ACES buffering agent containing ACES and its sodium salt (pH 7.0), in place of the 30 mM MES/21 mM Tris buffering agent (pH 6.5).

[3] = Measurement of fructosyl peptide sample (αFVH) under mixing of CTAC, change in absorbance at 751 nm; assay type: biochemical; details: for Amount of Change in Absorbance at Wavelength of 751 nm under Mixing of Each Concentration of CTAC: as in Example 5, Table 7
Procedure: The purified enzyme of CFP-T7 and CFP-D7 obtained in Example 3-2 was used to measure a sample as shown below. The activity values of CFP-T7 and CFP-D7 were determined using (reagent 1) adjusted to pH 7.0 with αFVH at a final concentration of 5 mM as a substrate according to the method for measuring amadoriase activity.
(Reagent 4) αFVH (125 mg) was dissolved in ion-exchanged water, the volume of the solution was fixed to 10 ml, and thereby a 30 mM substrate solution was obtained. In addition, the resultant was diluted by 1/714 with a CTAC solution to provide a 42 μM αFVH/0% to 0.2% CTAC solution.
(Reagent 6) (50 μl) was added to a mixed solution of 135 μl of (reagent 5) warmed at 37° C. for 5 minutes in advance and 25 μl of the sample prepared in (11) above to start reaction, and absorbance at a wavelength of 751 nm after reaction at 37° C. for 5 minutes was measured using an automated analyzer, Bio Majesty JCA-BM1650 (from JEOL Ltd.). Absorbance (reagent blank) at a wavelength of 751 nm measured by a similar operation for (reagent 4) prepared using ion-exchanged water in place of the substrate solution was used as a control to calculate the amount of change in absorbance (difference) when each sample was measured, using the following equation. The final concentration of a colorimetric substrate, DA-64, was 0.15 mM; the final concentration of αFVH in the case of the presence of a substrate was 5 μM; and the length (optical path) of the cell used for absorbance measurement was 1 cm. Amount of change in absorbance=ΔAes−Ae0
The amount of change in absorbance when αFVH/0% to 0.2% CTAC were used as samples was calculated.
The purified preparations of amadoriases obtained as described above were used as samples to measure αFVH under the mixing of CTAC using PnFX and NvFX as in Example 5.

[4] = Buffer Solution 100 mM, pH 7.0 (citrate pH 6.0)

**Q.** What does the source list for CC(=O)O [Acetate, acetic acid]?
**A.** PnFX Residual Activity (%) (PnFX): 42.6%; CFP-T7 Residual Activity (%) (CFP-T7 [1]; Stabilizer 10 mM, Table 9-1): 8.9%; CFP-T7 Residual Activity (%) (CFP-T7 [1]; Stabilizer 20 mM, Table 9-1): 20.7%; CFP-T7 Residual Activity (%) (CFP-T7 [1]; Stabilizer 50 mM, Table 9-1): 52.4%

**Q.** What does the source list for C/C(=C/C(=O)O)C(=O)O [Citraconate, citraconic acid]?
**A.** CFP-T7 Residual Activity (%) (CFP-T7 [1]; Stabilizer 2 mM, Table 9-2): 18.5%; CFP-T7 Residual Activity (%) (CFP-T7 [1]; Stabilizer 10 mM, Table 9-2): 89.1%

**Q.** With O=S(=O)(O)CC(O)CN1CCOCC1 (centres unmarked) [MOPSO, 2-hydroxy-3-morpholino-propanesulfonic acid] as the molecule, how does the “CFP-T7 Residual Activity (%)” value (CFP-T7 [1]; Stabilizer 10 mM, Table 9-2) read?
**A.** The value was 9.0%.

**Q.** What about the “CFP-T7 Residual Activity (%)” value (CFP-T7 [1]; Stabilizer 20 mM, Table 9-2) of the same molecule?
**A.** The value was 23.5%.

**Q.** What does the source list for O=S(=O)(O)CCNC1CCCCC1 [CHES, N-cyclohexyl-2-aminoethane sulfonic acid, reference compound]?
**A.** stabilizing action of the stabilizer (in words) (CFP-T7 [1]; CFP-T7): did not have any stabilizing action; CFP-T7 Residual Activity (%) (CFP-T7 [1]; Stabilizer 20 mM, Table 9-2): 3.0%

**Q.** With O=C(O)CC(=O)O [Malonate, malonic acid] as the molecule, how does the “CFP-T7 Residual Activity (%)” value (CFP-T7 [1]; Stabilizer 2 mM, Table 9-2) read?
**A.** The value was 10.8%.

**Q.** What about the “CFP-T7 Residual Activity (%)” value (CFP-T7 [1]; Stabilizer 10 mM, Table 9-2) of the same molecule?
**A.** The value was 77.3%.

**Q.** What does the source list for O=S(=O)(O)CCN1CCN(CCO)CC1 [HEPES, 4-2-hydroxyethyl-1-piperazine-ethanesulfonic acid, reference compound]?
**A.** CFP-T7 Residual Activity (%) (CFP-T7 [2]; Buffer Solution 50 mM, pH 7.0 (citrate pH 6.0)): 13.2%; CFP-T7 Residual Activity (%) (CFP-T7 [2]; [4]): 13.2%; CFP-T7 Residual Activity (%) (CFP-T7 [2]; Buffer Solution 150 mM, pH 7.0): 12.2%; CFP-T7 Residual Activity (%) (CFP-T7 [2]; Buffer Solution 300 mM, pH 7.0): 9.6%; amadoriase stabilizing effect of the buffer (in words) (CFP-T7 [2]): does not have an amadoriase stabilizing effect; amadoriase stabilizing effect of the buffer (in words) (CFP-T7 [2]; listed as HEPES buffering agent): not observed

**Q.** Which “CFP-T7 Residual Activity (%)” value (CFP-T7 [1]; Stabilizer 2 mM, Table 9-2) does the source give for O=C(O)CCCC(=O)O [Glutarate, glutaric acid] here?
**A.** Its value is 4.5%.

**Q.** What about the “CFP-T7 Residual Activity (%)” value (CFP-T7 [1]; Stabilizer 10 mM, Table 9-2) of the same molecule?
**A.** Its value is 55.9%.

**Q.** Which results are given for O=C(O)C(O)C(O)C(=O)O (centres unmarked) [Tartrate, tartaric acid]?
**A.** CFP-T7 Residual Activity (%) (CFP-T7 [1]; Stabilizer 2 mM, Table 9-2): 5.3%; CFP-T7 Residual Activity (%) (CFP-T7 [1]; Stabilizer 10 mM, Table 9-2): 70.0%

**Q.** Which “CFP-T7 Residual Activity (%)” value (CFP-T7 [1]; Stabilizer 2 mM, Table 9-2) does the source give for O=C(O)/C=C\C(=O)O [Maleate, maleic acid] here?
**A.** Its value is 15.5%.

**Q.** What about the “CFP-T7 Residual Activity (%)” value (CFP-T7 [1]; Stabilizer 10 mM, Table 9-2) of the same molecule?
**A.** Its value is 81.5%.

**Q.** For NC(=O)CNCCS(=O)(=O)O [ACES, N-(2-acetamido)-2-aminoethanesulfonic acid], which “CFP-T7 Residual Activity (%)” value (CFP-T7 [2]; Buffer Solution 20 mM, pH 7.0 (citrate pH 6.0)) is on record?
**A.** The value was 15.6%.

**Q.** And the “CFP-T7 Residual Activity (%)” value (CFP-T7 [2]; [4])?
**A.** The value was 16.4%.

**Q.** And the “CFP-T7 Residual Activity (%)” value (CFP-T7 [2]; Buffer Solution 200 mM, pH 7.0)?
**A.** Its value is 22.1%.

B1: NvFX: ketoamine oxidase derived from Neocosmospora vasinfecta, SEQ ID NO: 38 (protein, listed as Neocosmospora vasinfecta)
chain: MTTPRKETTVLIIGGGGTIGSSTALHLLRAGYTPSNITVLDTYPIPSAQSAGNDLNKIMGIRLRNKVDLQLSLEARDMWRNDALFRPFFHNTGRLDCESSAEGVEGLRREYQKLVEAGVGLEETHEWLDSEEAILEKAPLLQREEIEGWKAIWSEEGGWLAAAKAINAIGEELQRQGVRFGFGGAGSFKRPLFADDGTTCIGVETVDGTQYHADKVVLAAGAWSPALVDLEEQCCSKAWVYAHMQLTPEEAAVYKGCPVVYHGDVGFFFEPNENGVIKVCDEFPGFTRFKQHQPYGAPAPKPVSVPRSHAKHPTDTYPDASEESIKRAVSTFLPRFKDKPLFNRALCWCTDTADSALLICEHPRWKNFILATGDSGHSFKLLPIIGKHVVELVEGRLADDLAEAWRWRPGQGDARKSIRAAPAKDLADMPGWKHDQDSESR
**Q.** For B1, which “measurement of αFVH under the mixing of CTAC (in words)” value [3] is on record?
**A.** Its value is “αFVH could not accurately be measured”.

**Q.** And the “Amount of Change in Absorbance at Wavelength of 751 nm under Mixing of Each Concentration of CTAC” value (“Amount of Change in Absorbance” below) ([3]; Mixing of CTAC 0%)?
**A.** Its value is 0.118.

**Q.** What about the “Amount of Change in Absorbance” value ([3]; Mixing of CTAC 0.01%) of the same molecule?
**A.** Its value is 0.013.

**Q.** And the “Amount of Change in Absorbance” value ([3]; Mixing of CTAC 0.02%)?
**A.** The value was 0.013.

**Q.** What about the “Amount of Change in Absorbance” value ([3]; Mixing of CTAC 0.04%) of the same molecule?
**A.** The value was 0.007.

**Q.** And the “Amount of Change in Absorbance” value ([3]; Mixing of CTAC 0.06%)?
**A.** Its value is 0.004.

**Q.** What about the “Amount of Change in Absorbance” value ([3]; Mixing of CTAC 0.1%) of the same molecule?
**A.** The value was 0.003.

**Q.** And the “Amount of Change in Absorbance” value ([3]; Mixing of CTAC 0.2%)?
**A.** Its value is 0.001.
